According to ChEMBL document CHEMBL1140931, “Discovery of the first selective inhibitor of excitatory amino acid transporter subtype 1” (J Med Chem, 2009):
pIC50: −log10 of the molar value. The source made the active and inactive calls. The calls are words filed in the database; no cut-off is given here.

How the values were obtained:
[1] = target: T1, Excitatory amino acid transporter 1 (Homo sapiens, UniProt P43003); assay: Displacement of [3H]D-Asp from human EAAT1 receptor expressed in HEK293 cells
T1 sequence (P43003 whole entry): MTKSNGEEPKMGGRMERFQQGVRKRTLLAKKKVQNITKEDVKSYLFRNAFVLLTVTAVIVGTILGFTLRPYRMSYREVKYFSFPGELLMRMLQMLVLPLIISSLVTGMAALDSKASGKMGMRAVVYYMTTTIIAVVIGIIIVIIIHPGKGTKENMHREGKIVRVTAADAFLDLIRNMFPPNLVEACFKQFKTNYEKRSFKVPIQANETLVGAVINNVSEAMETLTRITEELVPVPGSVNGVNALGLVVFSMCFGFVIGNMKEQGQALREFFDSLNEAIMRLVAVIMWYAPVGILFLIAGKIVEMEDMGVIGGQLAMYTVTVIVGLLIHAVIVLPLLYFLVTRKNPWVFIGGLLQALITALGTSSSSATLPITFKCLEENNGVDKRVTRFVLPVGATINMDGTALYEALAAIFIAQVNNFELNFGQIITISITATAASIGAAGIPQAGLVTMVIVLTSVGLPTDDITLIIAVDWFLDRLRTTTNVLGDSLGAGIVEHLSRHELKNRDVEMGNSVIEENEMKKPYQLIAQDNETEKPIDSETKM

[2] = target: Excitatory amino acid transporter 2 (Homo sapiens, UniProt P43004); assay: Displacement of [3H]D-Asp from human EAAT2 receptor expressed in HEK293 cells
Excitatory amino acid transporter 2, sequence (P43004 whole entry): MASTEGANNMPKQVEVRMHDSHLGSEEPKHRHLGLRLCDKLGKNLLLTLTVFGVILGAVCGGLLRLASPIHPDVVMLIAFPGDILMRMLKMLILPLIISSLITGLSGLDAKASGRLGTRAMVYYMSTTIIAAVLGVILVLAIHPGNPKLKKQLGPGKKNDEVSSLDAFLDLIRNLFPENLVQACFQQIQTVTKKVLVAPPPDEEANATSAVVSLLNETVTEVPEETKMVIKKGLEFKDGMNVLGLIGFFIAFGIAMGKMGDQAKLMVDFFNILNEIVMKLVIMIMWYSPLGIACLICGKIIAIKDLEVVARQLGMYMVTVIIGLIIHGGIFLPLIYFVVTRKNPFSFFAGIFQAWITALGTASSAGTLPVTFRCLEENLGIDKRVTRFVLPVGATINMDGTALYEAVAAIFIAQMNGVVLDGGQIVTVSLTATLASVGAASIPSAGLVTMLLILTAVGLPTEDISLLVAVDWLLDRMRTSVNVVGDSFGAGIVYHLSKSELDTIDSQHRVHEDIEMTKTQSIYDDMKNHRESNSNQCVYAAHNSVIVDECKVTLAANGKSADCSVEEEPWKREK

[3] = target: T2, Excitatory amino acid transporter 3 (Homo sapiens, UniProt P43005); assay: Displacement of [3H]D-Asp from human EAAT3 receptor expressed in HEK293 cells
T2 sequence (P43005 whole entry): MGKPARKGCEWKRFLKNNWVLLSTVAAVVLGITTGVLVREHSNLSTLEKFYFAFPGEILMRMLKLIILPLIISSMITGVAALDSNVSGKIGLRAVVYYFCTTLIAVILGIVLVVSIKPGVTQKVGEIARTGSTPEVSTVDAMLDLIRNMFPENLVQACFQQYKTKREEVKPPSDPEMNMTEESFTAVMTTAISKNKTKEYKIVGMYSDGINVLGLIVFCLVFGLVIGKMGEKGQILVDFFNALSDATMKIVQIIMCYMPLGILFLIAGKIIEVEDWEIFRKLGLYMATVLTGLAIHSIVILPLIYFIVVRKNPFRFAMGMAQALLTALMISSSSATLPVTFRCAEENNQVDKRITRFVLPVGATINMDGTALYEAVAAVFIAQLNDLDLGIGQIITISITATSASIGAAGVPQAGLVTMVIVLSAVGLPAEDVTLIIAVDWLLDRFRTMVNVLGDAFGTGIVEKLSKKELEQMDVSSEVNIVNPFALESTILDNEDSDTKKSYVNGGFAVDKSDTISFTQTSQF

[4] = target: T1, Excitatory amino acid transporter 1; assay: Activity of human EAAT1 expressed in HEK293 cells up to 100 uM; assay type: cell-based
[5] = target: T3, Excitatory amino acid transporter 3 (Homo sapiens) (UniProt P43005); assay: Activity of human EAAT3 expressed in HEK293 cells up to 100 uM; assay type: cell-based
T3 sequence (whole entry): T2 sequence (P43005 whole entry)

[6] = target: T1, Excitatory amino acid transporter 1; assay: Activity at human EAAT1 expressed in HEK293 cells assessed as inhibition of Glu-induced fluorescent response by FLIPR membrane potential blue assay
[7] = target: T4, Excitatory amino acid transporter 1 (Rattus norvegicus, UniProt P24942); assay: Activity at rat EAAT1 expressed in TSA201 cells assessed as inhibition of Glu-induced fluorescent response by FLIPR membrane potential blue assay; assay type: cell-based
T4 sequence (P24942 whole entry): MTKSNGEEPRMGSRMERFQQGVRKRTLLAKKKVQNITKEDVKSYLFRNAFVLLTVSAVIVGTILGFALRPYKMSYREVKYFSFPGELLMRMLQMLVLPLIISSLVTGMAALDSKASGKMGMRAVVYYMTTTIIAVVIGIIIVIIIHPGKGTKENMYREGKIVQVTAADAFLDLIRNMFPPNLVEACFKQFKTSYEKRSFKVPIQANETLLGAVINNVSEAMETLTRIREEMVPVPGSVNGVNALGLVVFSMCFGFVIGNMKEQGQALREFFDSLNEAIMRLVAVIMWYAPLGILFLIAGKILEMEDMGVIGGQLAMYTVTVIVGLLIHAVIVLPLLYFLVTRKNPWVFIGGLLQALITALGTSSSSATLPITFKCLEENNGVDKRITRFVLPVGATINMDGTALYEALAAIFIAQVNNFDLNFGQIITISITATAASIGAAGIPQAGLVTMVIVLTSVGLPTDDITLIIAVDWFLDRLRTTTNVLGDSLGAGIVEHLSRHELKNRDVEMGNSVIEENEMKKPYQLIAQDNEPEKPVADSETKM

SMILES | pIC50 [1] | pIC50 [2] | pIC50 [3] | Activity [4] | Activity [5] | pIC50 [6] | pIC50 [7] | pIC50 ([2]; hek293) | pIC50 ([3]; hek293)
CSc1ccc(C2C(C#N)=C(N)OC3=C2C(=O)CC(c2ccccc2)C3)cc1 (centres undefined) | 5.57 | < 4.00 | < 4.00 |  |  |  |  |  | 
CC1C(C#N)=C(N)OC2=C1C(=O)CC(c1ccccc1)C2 (centres undefined) | 5.04 | < 3.50 | < 3.50 |  |  |  |  |  | 
COc1cccc(C2C(C#N)=C(N)OC3=C2C(=O)CC(c2ccccc2)C3)c1OC (centres undefined) | ~4.30 | < 4.00 | < 4.00 |  |  |  |  |  | 
COc1ccc(C2C(C#N)=C(N)OC3=C2C(=O)CC(c2ccccc2Cl)C3)cc1 (centres undefined) | 5.49 | < 3.50 | < 3.50 |  |  |  |  |  | 
N#CC1=C(N)OC2=C(C(=O)CC(c3ccccc3)C2)C1c1cccc2ccccc12 (centres undefined) | 5.13 | < 4.00 | < 4.00 |  |  |  |  |  | 
N#CC1=C(N)OC2=C(C(=O)CC(c3ccccc3)C2)C1c1ccccc1F (centres undefined) | 5.33 | < 4.00 | < 4.00 |  |  |  |  |  | 
CC1CC(=O)C2=C(C1)OC(N)=C(C#N)C2c1ccc2c(c1)OCO2 (centres undefined) | < 3.52 | < 3.50 | < 3.50 |  |  |  |  |  | 
N#CC1=C(N)OC2=C(C(=O)CC(c3cccs3)C2)C1c1ccc([N+](=O)[O-])cc1 (centres undefined) | 5.00 | < 3.50 | < 3.50 |  |  |  |  |  | 
N#CC1=C(N)OC2=C(C(=O)CC(c3ccccc3)C2)C1c1ccc([N+](=O)[O-])cc1 (centres undefined) | 5.44 | < 4.00 | < 4.00 |  |  |  |  |  | 
COc1ccc(C2C(C#N)=C(N)OC3=C2C(=O)CC(c2ccccc2)C3)cc1 (centres undefined) |  | < 4.00 | < 4.00 |  |  |  |  |  | 
N#CC1=C(N)OC2=C(C(=O)CC(c3ccccc3)C2)C1c1ccc(-c2ccccc2)cc1 (centres undefined) | 5.68 | < 4.00 | < 4.00 |  |  |  |  |  | 
COc1ccc(C2C(C#N)=C(N)OC3=C2C(=O)CC(c2ccco2)C3)cc1OC(=O)N1CCOCC1 (centres undefined) | 4.00 | < 3.50 | < 3.50 |  |  |  |  |  | 
N#CC1=C(N)OC2=C(C(=O)CC(c3ccco3)C2)C1c1ccccc1 (centres undefined) | 5.14 | < 3.50 | < 3.50 |  |  |  |  |  | 
N#CC1=C(N)OC2=C(C(=O)CC(c3ccccc3)C2)C1c1cccs1 (centres undefined) | 4.85 | < 4.00 | < 4.00 |  |  |  |  |  | 
N#CC1=C(N)OC2=C(C(=O)CC(c3ccccc3)C2)C1c1cc(Br)cs1 (centres undefined) | 5.33 | < 4.00 | < 4.00 |  |  |  |  |  | 
COc1ccc(C2C(C#N)=C(N)OC3=C2C(=O)CC(c2cccc4ccccc24)C3)cc1 (centres undefined) | 6.18 | < 3.50 | < 3.50 | inactive | inactive | 6.92 | 6.01 |  | 
N#CC1=C(N)OC2=C(C(=O)CC(c3ccccc3)C2)C1Cc1ccccc1 (centres undefined) | 4.52 | < 4.00 | < 4.00 |  |  |  |  |  | 
N#CC1=C(N)OC2=C(C(=O)CC(c3ccccc3)C2)C1c1ccc2c(c1)OCO2 (centres undefined) | 5.40 | < 3.50 | < 3.50 |  |  |  |  |  | 
N#CC1=C(N)OC2=C(C1)C(=O)CC(c1ccccc1)C2 (centres undefined) | < 3.52 | < 3.50 | < 3.50 |  |  |  |  |  | 
COc1cc(C2C(C#N)=C(N)OC3=C2C(=O)CC(c2ccccc2)C3)ccc1OCc1c(F)cccc1Cl (centres undefined) | 5.37 | < 4.00 | < 4.00 |  |  |  |  |  | 
N#CC1=C(N)OC2=C(C(=O)CC(c3ccccc3)C2)C1c1cccnc1 (centres undefined) | 4.52 | < 3.50 | < 3.50 |  |  |  |  |  | 
N#CC1=C(N)OC2=C(C(=O)CC(c3ccccc3)C2)C1c1c[nH]c2ccccc12 (centres undefined) | < 4.00 | < 4.00 | < 4.00 |  |  |  |  | < 4.00 | < 4.00
N[C@@H](COS(=O)(=O)O)C(=O)O | 4.00 |  | 4.00 |  |  |  |  |  | 
N#CC1=C(N)OC2=C(C(=O)CCC2)C1c1ccccc1F (centres undefined) | < 3.52 | < 3.50 | < 3.50 |  |  |  |  |  | 
N#CC1=C(N)OC2=C(C(=O)CC(c3ccccc3)C2)C1c1ccc2ccccc2c1 (centres undefined) | 5.44 | < 4.00 | < 4.00 |  |  |  |  |  | 
